Test results from patent US20240368173A1, “TRICYCLIC GPR65 MODULATORS” (PATHIOS THERAPEUTICS LIMITED, priority 2021, published 2024).

These compounds were tested against human recombinant GPR65 (Homo sapiens, UniProt Q8IYL9) (assay: Human GPR65 cAMP HTRF antagonist assay). Conditions: not given.
Type: cell-based
How it was run: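 Antagonism measured as suppression of the cAMP rise when pH is dropped to 7.2 (control wells pH 7.9) in 1321N1 cells stably carrying human GPR65. Cells in KRH with 1 mM IBMX and 200 μM EDTA saw compound 30 min, then acid stimulation 30 min; HTRF cAMP detection, normalised, 4-parameter logistic IC50.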

Chain of human recombinant GPR65 (Q8IYL9 whole entry): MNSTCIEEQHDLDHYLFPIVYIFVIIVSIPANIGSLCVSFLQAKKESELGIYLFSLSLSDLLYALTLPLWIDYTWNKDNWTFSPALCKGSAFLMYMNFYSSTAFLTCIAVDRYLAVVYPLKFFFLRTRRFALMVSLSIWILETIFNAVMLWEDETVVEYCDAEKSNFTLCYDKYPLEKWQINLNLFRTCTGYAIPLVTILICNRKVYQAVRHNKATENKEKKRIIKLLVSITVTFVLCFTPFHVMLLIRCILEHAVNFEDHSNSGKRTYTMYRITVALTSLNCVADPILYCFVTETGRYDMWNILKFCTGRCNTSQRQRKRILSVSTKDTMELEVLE

SMILES | IC50 [nM]
O=C(Nc1cc(Cl)c(-c2ccccc2)cc1F)N1[C@H]2CC[C@@H]1c1ccnc(F)c1C2 [Compound 250, (5R,8S)-N-(2-Chloro-5-fluoro-[1,1′-biphenyl]-4-yl)-1-fluoro-6,7,8,9-tetrahydro-5H-5,8-epiminocyclohepta[c]pyridine-10-carboxamide] | < 500
O=C(Nc1cc(Cl)c(-c2ccccc2)cc1F)N1[C@H]2CC[C@@H]1c1c[nH]c(=O)cc1C2 [Compound 251, (6S,9R)-N-(2-Chloro-5-fluoro-[1,1′-biphenyl]-4-yl)-3-oxo-3,5,6,7,8,9-hexahydro-2H-6,9-epiminocyclohepta[c]pyridine-10-carboxamide] | < 500
O=C(Nc1cc(Cl)c(-c2cc(F)cnc2F)cc1F)N1[C@H]2CC[C@@H]1c1c[nH]c(=O)cc1C2 [Compound 252, (6S,9R)-N-(5-Chloro-4-(2,5-difluoropyridin-3-yl)-2-fluorophenyl)-3-oxo-3,5,6,7,8,9-hexahydro-2H-6,9-epiminocyclohepta[c]pyridine-10-carboxamide] | < 500
O=C(Nc1cc(-c2ccc3nonc3c2)c(C(F)(F)F)cc1F)N1[C@H]2CC[C@@H]1c1ccnc(F)c1C2 [Compound 253, (5R,8S)-N-(5-(benzo[c][1,2,5]oxadiazol-5-yl)-2-fluoro-4-(trifluoromethyl)phenyl)-1-fluoro-6,7,8,9-tetrahydro-5H-5,8-epiminocyclohepta[c]pyridine-10-carboxamide] | < 500
O=C(Nc1cc(-c2ccc3nonc3c2)c(C(F)(F)F)cc1F)N1[C@H]2CC[C@@H]1c1n[nH]c(=O)cc1C2 [Compound 254, (6S,9R)-N-(5-(Benzo[c][1,2,5]oxadiazol-5-yl)-2-fluoro-4-(trifluoromethyl)phenyl)-3-oxo-3,5,6,7,8,9-hexahydro-2H-6,9-epiminocyclohepta[c]pyridazine-10-carboxamide] | < 500
O=C(Nc1cc(-c2cncc(F)c2)c(C(F)(F)F)cc1F)N1[C@H]2CC[C@@H]1c1c[nH]c(=O)cc1C2 [Compound 255, (6S,9R)-N-(2-Fluoro-5-(5-fluoropyridin-3-yl)-4-(trifluoromethyl)phenyl)-3-oxo-3,5,6,7,8,9-hexahydro-2H-6,9-epiminocyclohepta[c]pyridine-10-carboxamide] | < 500
O=C(Nc1cc(-c2cncc(F)c2)c(C(F)(F)F)cc1F)N1[C@H]2CC[C@@H]1c1ccnc(F)c1C2 [Compound 256, (5R,8S)-1-fluoro-N-(2-fluoro-5-(5-fluoropyridin-3-yl)-4-(trifluoromethyl)phenyl)-6,7,8,9-tetrahydro-5H-5,8-epiminocyclohepta[c]pyridine-10-carboxamide] | < 500
O=C(Nc1cc(-c2cncc(F)c2)c(C(F)(F)F)cc1F)N1[C@H]2CC[C@@H]1c1n[nH]c(=O)cc1C2 [Compound 257, (6S,9R)-N-(2-Fluoro-5-(5-fluoropyridin-3-yl)-4-(trifluoromethyl)phenyl)-3-oxo-3,5,6,7,8,9-hexahydro-2H-6,9-epiminocyclohepta[c]pyridazine-10-carboxamide] | < 500
O=C(Nc1cc(-c2ccccc2)c(C(F)(F)F)cc1F)N1[C@H]2CC[C@@H]1c1n[nH]c(=O)cc1C2 [Compound 258, (6S,9R)-N-(4-Fluoro-6-(trifluoromethyl)-[1,1′-biphenyl]-3-yl)-3-oxo-3,5,6,7,8,9-hexahydro-2H-6,9-epiminocyclohepta[c]pyridazine-10-carboxamide] | < 500
O=C(Nc1cc(-c2ccc3nonc3c2)c(C(F)(F)F)cc1F)N1[C@H]2CC[C@@H]1c1c[nH]c(=O)cc1C2 [Compound 259, (6S,9R)-N-(5-(Benzo[c][1,2,5]oxadiazol-5-yl)-2-fluoro-4-(trifluoromethyl)phenyl)-3-oxo-3,5,6,7,8,9-hexahydro-2H-6,9-epiminocyclohepta[c]pyridine-10-carboxamide] | < 500
O=C(Nc1cc(Cl)c(-c2cc(F)cnc2F)cc1F)N1[C@H]2CC[C@@H]1c1ccnc(F)c1C2 [Compound 260, (5R,8S)-N-(5-Chloro-4-(2,5-difluoropyridin-3-yl)-2-fluorophenyl)-1-fluoro-6,7,8,9-tetrahydro-5H-5,8-epiminocyclohepta[c]pyridine-10-carboxamide] | < 500
O=C(Nc1cc(Cl)c(-c2cnc(F)c(F)c2)cc1F)N1[C@H]2CC[C@@H]1c1c[nH]c(=O)cc1C2 [Compound 261, (6S,9R)-N-(5-Chloro-4-(5,6-difluoropyridin-3-yl)-2-fluorophenyl)-3-oxo-3,5,6,7,8,9-hexahydro-2H-6,9-epiminocyclohepta[c]pyridine-10-carboxamide] | < 500
O=C(Nc1cc(Cl)c(-c2cnc(F)c(F)c2)cc1F)N1[C@H]2CC[C@@H]1c1ccnc(F)c1C2 [Compound 262, (5R,8S)-N-(5-chloro-4-(5,6-difluoropyridin-3-yl)-2-fluorophenyl)-1-fluoro-6,7,8,9-tetrahydro-5H-5,8-epiminocyclohepta[c]pyridine-10-carboxamide] | < 500
CCOc1ccc(-c2cc(F)c(NC(=O)N3[C@H]4CC[C@@H]3c3ccnc(F)c3C4)cc2Cl)cn1 [Compound 263, (5R,8S)-N-(5-Chloro-4-(6-ethoxypyridin-3-yl)-2-fluorophenyl)-1-fluoro-6,7,8,9-tetrahydro-5H-5,8-epiminocyclohepta[c]pyridine-10-carboxamide] | < 500
COc1cc(-c2cc(F)c(NC(=O)N3[C@H]4CC[C@@H]3c3ccnc(F)c3C4)cc2Cl)ccn1 [Compound 264, (5R,8S)-N-(5-Chloro-2-fluoro-4-(2-methoxypyridin-4-yl)phenyl)-1-fluoro-6,7,8,9-tetrahydro-5H-5,8-epiminocyclohepta[c]pyridine-10-carboxamide] | < 500
COc1cc(-c2cc(F)c(NC(=O)N3[C@H]4CC[C@@H]3c3c[nH]c(=O)cc3C4)cc2Cl)ccn1 [Compound 265, (6S,9R)-N-(5-Chloro-2-fluoro-4-(2-methoxypyridin-4-yl)phenyl)-3-oxo-3,5,6,7,8,9-hexahydro-2H-6,9-epiminocyclohepta[c]pyridine-10-carboxamide] | < 500
O=C(Nc1cc(Cl)c(-c2ccnc(F)c2)cc1F)N1[C@H]2CC[C@@H]1c1n[nH]c(=O)cc1C2 [Compound 266, (6S,9R)-N-(5-Chloro-2-fluoro-4-(2-fluoropyridin-4-yl)phenyl)-3-oxo-3,5,6,7,8,9-hexahydro-2H-6,9-epiminocyclohepta[c]pyridazine-10-carboxamide] | < 500
O=C(Nc1cc(Cl)c(-c2ccnc(F)c2)cc1F)N1[C@H]2CC[C@@H]1c1c[nH]c(=O)cc1C2 [Compound 267, (6S,9R)-N-(5-Chloro-2-fluoro-4-(2-fluoropyridin-4-yl)phenyl)-3-oxo-3,5,6,7,8,9-hexahydro-2H-6,9-epiminocyclohepta[c]pyridine-10-carboxamide] | < 500
O=C(Nc1cc(Cl)c(-c2ccnc(F)c2)cc1F)N1[C@H]2CC[C@@H]1c1ccnc(F)c1C2 [Compound 268, (5R,8S)-N-(5-Chloro-2-fluoro-4-(2-fluoropyridin-4-yl)phenyl)-1-fluoro-6,7,8,9-tetrahydro-5H-5,8-epiminocyclohepta[c]pyridine-10-carboxamide] | < 500
O=C(Nc1cc(C(F)(F)F)c(-c2cnc3nonc3c2)cc1F)N1[C@H]2CC[C@@H]1c1n[nH]c(=O)cc1C2 [Compound 269, (6S,9R)-N-(4-([1,2,5]Oxadiazolo[3,4-b]pyridin-6-yl)-2-fluoro-5-(trifluoromethyl)phenyl)-3-oxo-3,5,6,7,8,9-hexahydro-2H-6,9-epiminocyclohepta[c]pyridazine-10-carboxamide] | < 500
O=C(Nc1cc(Cl)c(-c2ccc3csnc3c2)cc1F)N1[C@H]2CC[C@@H]1c1n[nH]c(=O)cc1C2 [Compound 270, (6S,9R)-N-(4-(Benzo[c]isothiazol-6-yl)-5-chloro-2-fluorophenyl)-3-oxo-3,5,6,7,8,9-hexahydro-2H-6,9-epiminocyclohepta[c]pyridazine-10-carboxamide] | < 500
CCOc1ccc(-c2cc(F)c(NC(=O)N3[C@H]4CC[C@@H]3c3c[nH]c(=O)cc3C4)cc2Cl)cn1 [Compound 272, (6S,9R)-N-(5-Chloro-4-(6-ethoxypyridin-3-yl)-2-fluorophenyl)-3-oxo-3,5,6,7,8,9-hexahydro-2H-6,9-epiminocyclohepta[c]pyridine-10-carboxamide] | < 500
CC(C)Oc1ccc(-c2cc(F)c(NC(=O)N3[C@H]4CC[C@@H]3c3c[nH]c(=O)cc3C4)cc2Cl)cn1 [Compound 273, (6S,9R)-N-(5-Chloro-2-fluoro-4-(6-isopropoxypyridin-3-yl)phenyl)-3-oxo-3,5,6,7,8,9-hexahydro-2H-6,9-epiminocyclohepta[c]pyridine-10-carboxamide] | < 500
CC(C)Oc1ccc(-c2cc(F)c(NC(=O)N3[C@H]4CC[C@@H]3c3ccnc(F)c3C4)cc2Cl)cn1 [Compound 274, (5R,8S)-N-(5-Chloro-2-fluoro-4-(6-isopropoxypyridin-3-yl)phenyl)-1-fluoro-6,7,8,9-tetrahydro-5H-5,8-epiminocyclohepta[c]pyridine-10-carboxamide] | < 500
O=C(Nc1cc(Cl)c(-c2ccc(OC3COC3)nc2)cc1F)N1[C@H]2CC[C@@H]1c1n[nH]c(=O)cc1C2 [Compound 275, (6S,9R)-N-(5-Chloro-2-fluoro-4-(6-(oxetan-3-yloxy)pyridin-3-yl)phenyl)-3-oxo-3,5,6,7,8,9-hexahydro-2H-6,9-epiminocyclohepta[c]pyridazine-10-carboxamide] | < 500

Same assay, conditions: 1321N1-hrGPR65 cells, cAMP HTRF, assay pH 7.2; read-out: hGPR65 IC50 (Activity of selected compounds according to the invention)

SMILES | IC50 [nM]
O=C(Nc1cc(Cl)c(-c2cnccn2)cc1F)N1[C@H]2CC[C@@H]1c1n[nH]c(=O)cc1C2 [Compound 271, (6S,9R)-N-(5-Chloro-2-fluoro-4-(pyrazin-2-yl)phenyl)-3-oxo-3,5,6,7,8,9-hexahydro-2H-6,9-epiminocyclohepta[c]pyridazine-10-carboxamide] | 500 to 5000
